Results reported in ChEMBL document CHEMBL3351288, “Flavonoids and arylbenzofurans from the rhizomes and roots of Sophora tonkinensis with IL-6 production inhibitory activity” (Bioorg Med Chem Lett, 2014).

Experiments:
[1] = system: HMC1; experiment: Inhibition of A23187-induced IL-6 production in human HMC1 cells incubated for 30 mins prior to A23187 challenge measured after 24 hrs by ELISA; format: functional, cell-based
[2] = Cytotoxicity against human HMC1 cells assessed as cell viability; format: cell-based

COc1ccc(-c2cc3ccc(O)cc3o2)c(O)c1
IC50 [1]: 4.02 µM | IC50 [2]: > 20 µM

CC(C)=CCc1cc([C@@H]2CC(=O)c3ccc(O)c(CC=C(C)C)c3O2)ccc1O [GLABROL]
IC50 [1]: 0.73 µM | IC50 [2]: > 20 µM

CC(C)=CCc1cc(C2CC(=O)c3ccc(O)c(CC=C(C)C)c3O2)c(O)cc1O (stereo not drawn)
IC50 [1]: 1.62 µM | IC50 [2]: > 20 µM

Oc1ccc2c(c1)OC[C@H]1c3cc4c(cc3O[C@@H]21)OCO4 [MAACKIAIN]
IC50 [1]: 3.01 µM | IC50 [2]: > 20 µM
